Entries after “also recorded” stand apart in the source; their conditions may differ.

The subject of one data set is male CD-1 mice. As to the kind of experiment: Forced-swim test (FST). It counts as in vivo. The conditions noted are these: for antidepressant effect in the FST (immobility time): i.p. The source says: Male CD-1 mice (8-10 weeks old, Charles River Laboratories, Mass., USA) were housed in groups of four-five per cage with a constant 12-hour light/dark cycle (lights on/off at 07:00/19:00). Food and water were available ad libitum. Mice acclimatized to the new environment for seven days prior to the start of the experiments. For the whole-cell NMDA current electrophysiological recordings, male Sprague-Dawley rats (housed three per cage; Charles River, Wilmington, Mass.) were used. EPSC recording were done from rats at postnatal day 24-25. All experimental procedures were approved by the University of Maryland, Baltimore Animal Care and Use Committee and were conducted in full accordance with the National Institutes of Health Guide for the Care and Use of Laboratory Animals.
Mice were tested in the FST 1 hour and/or 24 hours post-injection. During the FST, mice were subjected to a 6-min swim session in clear Plexiglass cylinders (30 cm height×20 cm diameter) filled with 15 cm of water (23±1° C.). The FST was performed in normal light conditions (800 Lux). Sessions were recorded using a digital video-camera. Immobility time, defined as passive floating with no additional activity other than that necessary to keep the animal's head above water, was scored for the last 4 min of the 6-min test by a trained observer blind to the treatment.
All drugs were dissolved in 0.9% saline, and administered intraperitoneally (i.p.) in a volume of 7.5 ml/kg of body mass. Corticosterone (4-pregnen-11β, 21-diol-3, 20-dione 21-hemisuccinate; Steraloids, Newport, R.I., USA) was dissolved in tap water. For the electrophysiology recordings, test drugs were diluted in artificial cerebrospinal fluid (AC SF).

A further data set has as its system GluR1 and GluR2. Briefly: Western blot of synaptoneurosomes, GluR1 and GluR2 levels. The data set is classed as in vivo, mice. The method, then:
To purify synaptoneurosomes, mouse prefrontal cortex or hippocampus were dissected and homogenized in Syn-PER Reagent (ThermoFisher Scientific, Waltham, Mass., USA; Cat #87793) with 1× protease and phosphatase inhibitor cocktail (ThermoFisher Scientific, Waltham, Mass., USA; Cat #78440). The homogenate was centrifuged for 10 min at 1,200×g at 4° C. The supernatant was centrifuged at 15,000×g for 20 min. After centrifugation, the supernatant the pellet (synaptosomal fraction) was re-suspended and sonicated in N-PER Neuronal Protein Extraction Reagent (ThermoFisher Scientific, Waltham, Mass., USA; Cat #87792). For total homogenous tissue lysates, mouse prefrontal cortex or hippocampus were homogenized and sonicated in N-PER Neuronal Protein Extraction Reagent with 1× protease & phosphatase inhibitor cocktail) Protein concentration was determined via the BCA protein assay kit (ThermoFisher Scientific, Waltham, Mass., USA; Cat #23227).
For western blotting, equal amount of proteins (10-40 μg as optimal for each antibody) for each sample were loaded into NuPage 4-12% Bis-Tris gel for electrophoresis. Nitrocellulose membranes with transferred proteins were blocked with 5% milk in TBST (TBS+0.1% Tween-20) for 1 hour and kept with primary antibodies overnight at 4° C. The following primary antibodies were used: phospho-eEF2 (Cell Signaling Technology, Danvers, Mass., USA; Cat #2331), total eEF2 (Cell Signaling Technology, Danvers, Mass., USA; Cat #2332), phospho-mTOR (Cell Signaling Technology, Danvers, Mass., USA; Cat #2971), total mTOR (Cell Signaling Technology, Danvers, Mass., USA; Cat #2983), GluR1 (Cell Signaling Technology, Danvers, Mass., USA; […]), GluR2 (Cell Signaling Technology, Danvers, Mass., USA; Cat #13607), BDNF (Santa Cruz Biotechnology, Dallas, Tex., USA; Cat # sc-546), and GAPDH (Abcam, Cambridge, Mass., USA; Cat # ab8245). The next day, blots were washed three times in PBST and incubated with horseradish peroxidase conjugated anti-mouse or anti-rabbit secondary antibody (1:5000 to 1:10000) for 1 hour. After final three washes with TBST, bands were detected using enhanced chemiluminescence (ECL) with the Syngene Imaging System (G:Box ChemiXX9). After imaging, the blots then were incubated in the stripping buffer (ThermoFisher Scientific, Waltham, Mass., USA; Cat #46430) for 10-15 min at room temperature followed by three time washes with TBST. The stripped blots were washed in blocking solution for 1 hour and incubated with the primary antibody directed against total levels of the respective protein or GAPDH for loading control. Densitometric analysis of phospho- and total immunoreactive bands for each protein was conducted using Syngene's GenTools software Immunoreactivity was normalized to the saline treated control group for each protein.

The test system of another data set is Male C57BL/6J mice. As to the kind of experiment: Chronic social defeat stress and social interaction/avoidance test. The data set is classed as in vivo. The conditions noted are these: for locomotor activity and total compartmental crosses in the social interaction test: following chronic social defeat stress; for reversal of social interaction deficits / social avoidance induced by chronic social defeat stress: single i.p. injection, re-test 24 hours following treatment. The method, then: Male C57BL/6J mice underwent a 10-day chronic social defeat stress paradigm. Briefly, experimental mice were introduced to the home cage (43 cm length×11 cm width×20 cm height) of a resident aggressive retired CD-1 breeder, prescreened for aggressive behaviors, for 10 min. Following this physical attack phase, mice were transferred and housed in the opposite side of the resident's cage divided by a Plexiglas perforated divider, in order to maintain continuous sensory contact. This process was repeated for 10 days. Experimental mice were introduced to a novel aggressive CD-1 mouse each day. On day 11, test mice were screened for susceptibility in a social interaction/avoidance choice test. The social interaction apparatus consisted of a rectangular three-chambered box (mouse conditioned-place preference chamber; Stoelting Co., Wood Dale, Ill., USA), see FIG. 7b) comprised of two equal sized end-chambers and a smaller central chamber. The social interaction/avoidance choice test consisted of two 5-min phases. During the habituation phase, mice explored the empty apparatus. During the test phase, two small wire cages (Galaxy Cup, Spectrum Diversified Designs, Inc., Streetsboro, Ohio, USA), one containing a “stranger” CD-1 mouse and the other one empty, were placed in the far corners of each chamber. The time spent interacting (nose within close proximity of the cage) with the “stranger” mouse versus the empty cage was analysed using TopScan video tracking software (CleverSys, Reston, Va.). Locomotor activity (total distance moved over 5 min) and number of total crosses into and out of the central chamber were also measured. The social interaction ratio was calculated by dividing the time spent interacting with the “stranger” by the time spent with the empty cage. Mice having a social interaction ratio higher than 1.0 were considered resilient and mice with a social interaction ratio lower than 1.0 were considered susceptible. On day 13 resilient and susceptible mice received an i.p. injection of either saline, (R,S)-KET (20 mg/kg; chosen based upon dose previously effective in C57BL/6J mice^31), MK-801 (0.1 mg/kg) or (2R,6R)-HNK (20 mg/kg). Mice were re-tested for social interaction/avoidance on […] (24 hours following treatment).

[1] abbreviates: 1- and 24-hours post-injection, times not separated.
The mark [2] stands for this setting: 24 hours post-injection (sustained).

Regarding `CNC1(c2ccccc2Cl)CCCCC1=O` (racemic) [ketamine, (R,S)-ketamine, reference compound], the “antidepressant effect in the FST (immobility time)” value was “acute and long-lasting dose-dependent antidepressant effects” in the data set on male CD-1 mice (setting [1]); “antidepressant responses of both ketamine and MK-801 observed acutely” with male CD-1 mice (1 hour post-injection (acute)); “showed sustained effects following 24 hours” in the data set with male CD-1 mice (setting [2]). Moreover, the “antidepressant potency in the FST, female versus male mice” value in the data set with male CD-1 mice (female mice compared to males) is given as “greater antidepressant potency of ketamine in female mice”. The “GluR1 and GluR2 levels in hippocampal synaptoneurosomes” value in the data set on GluR1 and GluR2 (1 hour post-treatment) is “neither ketamine nor (2R,6R)-HNK administration altered”; in the data set with GluR1 and GluR2 (24 hours post-treatment) it was “both increased GluR1 and GluR2 levels”. Also, the “GluR1/GluR2 levels in prefrontal cortex synaptoneurosomes” value in the data set on GluR1 and GluR2 (listed as (R,S)-KET) is “did not alter synaptoneurosome levels of GluR1/GluR2”. In addition, the “locomotor activity and total compartmental crosses in the social interaction test” value in the data set on Male C57BL/6J mice was “without affecting”. For the same compound, the “reversal of social interaction deficits / social avoidance induced by chronic social defeat stress” value with Male C57BL/6J mice is listed as “reversed social defeat stress-induced social avoidance behaviors”.
Consider `N[C@@]1(c2ccccc2Cl)CCC[C@@H](O)C1=O` [(2R,6R)-HNK, (2R,6R)-2-amino-2-(2-chlorophenyl)-6-hydroxycyclohexanone], for which the “antidepressant effect in the FST (immobility time)” value was “greater potency and longer-lasting antidepressant-like effects; also recorded: dose-dependent antidepressant-like effects; also recorded: dose-dependent antidepressant action” with male CD-1 mice (setting [1]); “more potent antidepressant effects” in the data set with male CD-1 mice (setting [2]). Besides, the “GluR1 and GluR2 levels in hippocampal synaptoneurosomes” value in the data set on GluR1 and GluR2 (1 hour post-treatment) was “neither ketamine nor (2R,6R)-HNK administration altered”; in the data set on GluR1 and GluR2 (24 hours post-treatment), “both increased GluR1 and GluR2 levels”. For the same compound, the “GluR1/GluR2 levels in prefrontal cortex synaptoneurosomes” value in the data set on GluR1 and GluR2 is “did not alter synaptoneurosome levels of GluR1/GluR2”. The “locomotor activity and total compartmental crosses in the social interaction test” value with Male C57BL/6J mice is “not associated with changes”. In the data set with Male C57BL/6J mice, the “reversal of social interaction deficits / social avoidance induced by chronic social defeat stress” value is “reversed social interaction deficits”.

The values are drawn from US20190083420A1, “METHODS OF USING (2R, 6R)-HYDROXYN[…] (2S, 6S)-HYDROXYN[…] THE TREATMENT OF DEPRESSION, ANXIETY, ANHEDONIA, FATIGUE, SUICIDAL IDEATION, AND POST TRAUMATIC STRESS DISORDERS” (The Uinited States of America, as represented by the …, priority 2016, published 2019).
